The data set in a line: paclitaxel release profile from block-copolymer-coated stents in PBS with 0.5% Tween 20. Format: physicochemical. Conditions: release in PBS with 0.5% Tween 20, FIG. 1. The text has this: A solution is provided that contains the following: 99 wt % solvent system, 0.25 wt % paclitaxel and 0.75 wt % block copolymer. The copolymer is synthesized using known techniques such as those described in U.S. Pat. No. 5,741,331, U.S. Pat. No. 4,946,899 and U.S. Ser. No. 09/734,639. The solvent system consists of tetrahydrofuran (THF) and toluene, which are provided in varying ratios in this example. The solution is provided by (1) mixing the paclitaxel and tetrahydrofuran, (2) adding the copolymer, (3) adding the toluene, (4) thoroughly mixing (e.g., overnight), and (5) filtering.
The solution is then placed in a syringe pump and fed to a spray nozzle. A stent is mounted onto a holding device parallel to the nozzle and, if desired, rotated to ensure uniform coverage. Depending on the spray equipment used, either the component or spray nozzle can be moved while spraying such that the nozzle moves along the component while spraying for one or more passes.
After a coating is formed in this fashion, it is dried, for example, by placing it in a preheated oven for 30 minutes at 65° C., followed by 3 hours at 70° C.
Three coated stents are formed in this manner using (in addition to 0.25 wt % paclitaxel and 0.75 wt % block copolymer) the following solvent species in the following relative amounts: (T) 99 wt % THF, (2) 75 wt % THF, 24 wt % toluene, (3) 50 wt % THF, 49 wt % toluene, (4) 25 wt % THF, 74 wt % toluene, (5) 5 wt % THF, 94 wt % toluene. Release rate as a function of time and cumulative release as a function of time (referred to herein as the “release profile”) were then measured in PBS with 0.5% Tweeng 20 (polyoxyethylene(20) sorbitan monolaurate) available from Sigma-Aldrich. The results are graphically illustrated in FIG. 1.

With `CC(=O)O[C@H]1C(=O)[C@@]2(C)[C@H]([C@H](OC(=O)c3ccccc3)[C@]3(O)C[C@H](OC(=O)[C@H](O)[C@@H](NC(=O)c4ccccc4)c4ccccc4)C(C)=C1C3(C)C)[C@]1(OC(C)=O)CO[C@@H]1C[C@@H]2O` [paclitaxel], the “paclitaxel release (release profile)” value is recorded as “more accelerated paclitaxel release” (coating formed from higher THF-to-toluene ratios in the solvent system) and “more extended paclitaxel release” (coating formed from lower THF-to-toluene ratios in the solvent system). The “paclitaxel release (release rate and cumulative release as a function of time)” value (stent coating of 0.25 wt % paclitaxel and 0.75 wt % block copolymer, THF solvent system with toluene added) was “reduced by the addition of toluene”.

The values above are taken from patent US20030203000A1, “Modulation of therapeutic agent release from a polymeric carrier using solvent-based techniques” (priority 2002, published 2003).
